For data set [1], the system named is PHA-stimulated T cells. In words: PHA-induced T cell proliferation (924 / wilforonide). Format: cell-based. The settings on record: PHA 0.5 µg/ml, 3 days. An excerpt: The molecular groups responsible for the immune suppressive function of these compounds are unknown, however, the core structure of diterpenoids which may be related to their activity consists of an α-β-unsaturated 5 element lactone which can be identified by Kedde reagents. HPLC was used to fractionate the ethyl acetate extract of TwHF and the Kedde reagents were employed to trace the fractions. Then, the effect of selected fractions on the in vitro IL-2 production and [^3H]-thymidine incorporation by PHA-activated T cells was determined. Fractions that inhibit these T cell functions were selected and the chromatographic pattern was identified with HPLC. One fraction was further purified with HPLC and crystallized repeatedly; a pure, crystallized compound was obtained and designated "924".
[^3H]-thymidine was added for the last 14 hours of culture. Each concentration was run in quadruplicate (4 times) and the results for each concentration averaged to provide a mean. The mean cpm x 10^3 values were combined and expressed as a percent of T cell inhibition.

In data set [2] the test system is PHA-stimulated T cells. Kind of data set: Viability of PHA-stimulated T cells (924). Format: cell-based. As to the method: A 924 fraction concentration of 1,000 ng/ml was only slightly more toxic to cell viability as compared to the 0 ng/ml dose (see FIG. 20D, 0 ng/ml = 22% of control; 1,000 ng/ml fraction 924 = […] of control cell viability).
The test system of the next data set is T cells. Kind of data set: Antigen (SK)-induced T cell proliferation (wilforonide). Format: cell-based. As to the method:
T cells were cultured with or without SK (1 ng/ml) or SK + IL-2 (50 u/ml) or SK + PMA (0.2 ng/ml) in the presence or absence of the following concentrations of wilforonide: 10 ng/ml, 50 ng/ml, 100 ng/ml, 500 ng/ml or 1,000 ng/ml. The cells were allowed to culture for five days. The cultures were pulsed with [^3H]-thymidine for the last 24 hours of culture. […] ID50 were calculated based on the regression formula by using the fx-3600 calculator. T cells cultured with SK or SK + IL-2 or SK + PMA gave cpm of 1.87 x 10^3, 4.99 x 10^3 and 6.67 x 10^3, respectively.

The test system of a further data set is IL-2. Kind of data set: PHA-induced IL-2 production (wilforonide, CTLL-2 readout). In kind it is cell-based. The settings on record: PHA 1 µg/ml, overnight. As to the method:
The effects of wilforonide on IL-2 production was also examined. T cells were cultured with or without PHA(1 microgram/ml) in the presence or absence of 0 (control), 10 ng/ml, 50 ng/ml, 100 ng/ml or 200 ng/ml wilforonide overnight. Cell-free supernatants were diluted 1 to 80 and the IL-2 content assayed with CTLL-2 cells.

A short description of the next data set: Solubility of 924. In kind it is physicochemical. To be noted: ethanol and chloroform. As to the method:
The dried woody skinned part of the root of TwHF was extracted with ethanol. The solution was concentrated at reduced pressure, and the residue was dissolved in ethyl acetate. This solution was passed through Al2O3 with ethanol as an eluent. The eluate was evaporated and the residue chromatographed on silica gel with chloroform, chloroform-ether and ethyl acetate as successive eluent. The fractions eluted with chloroform-ether were purified on a preparative HPLC column packed with Nova-Pak C18 and equipped with a 214 detector. Methanol-water was the mobile phase. A fraction having positive reaction to Kedde reagent was collected and extracted with chloroform. The chloroform solution was evaporated to dryness and the residue crystallized in dichloromethane-hexane to yield 924.

A further data set has as its system IL-2R. In words: IL-2R expression by PHA-activated T cells (924). Format: cell-based. The settings on record: 500 ng/ml. An excerpt: There was no effect of "924" on IL-2R expression by PHA-activated T cells.
The next data set has as its system IDH4 cells. Kind of data set: Dexamethasone dependent growth of IDH4 cells (3H-thymidine). In kind it is cell-based, human. To be noted: for [3H]-thymidine incorporation of IDH4 cells: without stimulation 16,391; for dexamethasone dependent growth of IDH4 cells: 72 hours. As to the method: IDH4 cells, that express endogenous glucocorticoid receptors, were produced by transfecting human fibroblasts with a plasmid containing the MMTV-long terminal repeat driving the SV40 large T antigen. Since extended growth of these cells is dependent on expression of the large T antigen, these cells require exogenous glucocorticoid to maintain proliferation.
[^3H]-Thymidine was present for the last 16 h. Data represent the mean % inhibition of [^3H]-thymidine incorporation of three replicate determinations of three separate experiments.

The test system of the next data set is cyclooxygenase 2 (COX-2). Kind of data set: LPS (endotoxin) induced PGE2 production by monocytes. In kind it is cell-based, human. The settings on record: LPS 10 µg/ml, 18 hours.
Another data set concerns the target T1, human GR (Homo sapiens, UniProt P04150).
T1 construct: host or cells: COS-7
T1 sequence (P04150 1-777): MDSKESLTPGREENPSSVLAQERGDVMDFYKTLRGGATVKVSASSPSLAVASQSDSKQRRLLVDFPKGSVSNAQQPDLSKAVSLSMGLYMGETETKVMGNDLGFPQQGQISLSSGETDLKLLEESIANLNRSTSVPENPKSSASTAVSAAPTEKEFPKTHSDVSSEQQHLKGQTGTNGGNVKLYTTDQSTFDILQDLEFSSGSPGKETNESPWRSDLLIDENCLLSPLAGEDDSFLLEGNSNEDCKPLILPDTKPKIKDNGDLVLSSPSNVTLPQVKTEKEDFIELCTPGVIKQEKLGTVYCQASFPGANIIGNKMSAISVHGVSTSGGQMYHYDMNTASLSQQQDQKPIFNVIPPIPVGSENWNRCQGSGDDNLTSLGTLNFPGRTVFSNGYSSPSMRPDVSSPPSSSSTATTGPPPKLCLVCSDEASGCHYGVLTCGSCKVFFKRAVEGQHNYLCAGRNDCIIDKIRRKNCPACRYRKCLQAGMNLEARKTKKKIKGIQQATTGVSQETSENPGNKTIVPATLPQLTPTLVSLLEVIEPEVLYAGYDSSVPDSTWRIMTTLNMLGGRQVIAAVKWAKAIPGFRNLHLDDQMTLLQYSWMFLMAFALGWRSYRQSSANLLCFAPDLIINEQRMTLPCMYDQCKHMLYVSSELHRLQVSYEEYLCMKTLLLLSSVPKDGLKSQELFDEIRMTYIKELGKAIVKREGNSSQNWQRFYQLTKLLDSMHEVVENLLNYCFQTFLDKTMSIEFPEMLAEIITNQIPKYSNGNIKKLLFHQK
Kind of data set: GR mediated gene activation, MMTV-luciferase in COS-7 cells, with dexamethasone. Format: cell-based. To be noted: for GR-mediated activation of target gene (MMTV-luciferase): dexamethasone-induced. As to the method:
Cell transfections and assays of GR mediated gene activation. COS-7 cells were maintained in culture in DMEM-10% bovine calf serum. […] Cells were plated at 10^6 cells per 10 cm plate. Twenty-four hours later, the cells were transfected with 500 ng pRShGrα, a GR expression vector (obtained from the Salk Institute, La Jolla, CA) and 10 µg of pMMTV-luciferase, a synthetic reporter gene. However, other expression vectors and synthetic reporter genes available to those of skill in the art may be used for transfection. The vector pMMTV-luciferase contains the luciferase gene under regulatory control of glucocorticoid-inducible elements in the MMTV-long terminal repeat. Cells were transfected using the calcium-phosphate precipitation technique (mammalian transfection kit, Stratagene, La Jolla, CA). […] Twenty-four hours later, the cells were washed, harvested, and lysates prepared by three cycles of freeze/thawing. The lysates were cleared by centrifugation at 12,000 x g for 5 minutes; aliquots were assayed for protein content and equal amounts of proteins were used for luciferase assays.
COS-7 cells were transfected with a human GR expression vector and the MMTV-luciferase reporter gene construct. A parallel set of plates was transfected with the constitutively active RSV-luciferase construct. […] Cells were lysed after 24 hours and assayed for luciferase activity.

For a further data set, the system named is U937 cells. In words: PGE2 production by LPS-activated U937 cells. Format: cell-based, human. The text has this:
This reflected marked suppression of the induction ofmRNA for cycloxygenase -2 (COX-2). […] This may contribute to its capacity to suppress autoimmune and inflammatory diseases.

A short description of another data set: in vitro. Format: cell-based. As to the method: The cells were assayed for cell viability by using a cytoflowmeter (FACSCAN) after the cells were stained with propidium iodine. […]

The structures appear in SMILES notation. In brackets after ≈: the same amount, converted by molar mass.

Protocol for cyclooxygenase 2 (COX-2): After 18 hours of incubation, cell-free supernatants were collected and assayed for PGE2 content with a radioimmunoassay kit (Amersham), as described by the manufacturer. […] Human monocytes produce prostaglandinE2 (PGE2) when stimulated with bacterial endotoxin.

With `C[C@]12CCC3=C(COC3=O)[C@@H]1CCC(=O)C2` (relative stereo) [wilforonide, naphtho-[1,2-c] furan-3,7(1H,5H)-dione, 4,5a,6,8,9,9a-hexahydro-5a-methyl-(5aR-trans)-], the “ID50, PHA-induced T cell proliferation” value in the data set on PHA-stimulated T cells [1] worked out at 0.3913 µg/mL (≈ 1.78 µM). In addition, the “cpm x 10^3 (experiments 1.-4.)” value with PHA-stimulated T cells [1] (Wilforonide 50 ng/ml) was found to be 57.0 cpm x 10^3. Also, the “viability of PHA-stimulated T cells” value with PHA-stimulated T cells [2] (1 ng/ml up to 1000 ng/ml) is given as “did not affect”. The cell viability with PHA-stimulated T cells [2] (1,000 ng/ml) was 35 % of control. Further, the figures for the “ID50, antigen-induced T cell proliferation” value with T cells (SK), in the data set on T cells (SK+IL-2) and in the data set with T cells (SK+PMA) were 0.12712 µg/mL (≈ 0.577 µM), 0.476 µg/mL (≈ 2.16 µM) and 0.613 µg/mL (≈ 2.78 µM), respectively. In addition, the “ID50, PHA-induced IL-2 production” value with IL-2 is 0.04211 µg/mL (≈ 0.191 µM). Moreover, the solubility entry in “Solubility of 924” is given as “soluble”. Besides, the “IL-2R expression by PHA-activated T cells” value with IL-2R is “did not affect”.
Take `C[C@@H]1C[C@H]2[C@@H]3CCC4=CC(=O)C=C[C@]4(C)[C@@]3(F)[C@@H](O)C[C@]2(C)[C@@]1(O)C(=O)CO` [dexamethasone]: the “[3H]-thymidine incorporation of IDH4 cells” value is 35,554 cpm in the data set on IDH4 cells (dexamethasone 1 nM), 52,937 cpm in the data set on IDH4 cells (dexamethasone 10 nM), 105,357 cpm with IDH4 cells (dexamethasone 100 nM) and 96,677 cpm in the data set with IDH4 cells (dexamethasone 1,000 nM).
Regarding `CC(C)[C@]12O[C@H]1[C@@H]1O[C@]13[C@]1(O[C@H]1C[C@H]1C4=C(C(=O)OC4)[C@@H](O)C[C@@]13C)[C@@H]2O` [tripdiolide], the “LPS / endotoxin induced PGE2 production by monocytes” value in the data set with cyclooxygenase 2 (COX-2) is on record as “inhibited”. Also, the “dexamethasone dependent growth of IDH4 cells” value in the data set with IDH4 cells is “inhibited”. Moreover, the “GR-mediated activation of target gene (MMTV-luciferase)” value (“GR-mediated activation of target gene” below) on human GR is listed as “inhibited”. Moreover, in the data set with U937 cells, the “PGE2 production by LPS-activated U937 cells that do not express COX-2” value is “had effect”.
For the molecule `CC(C)[C@]12O[C@H]1[C@@H]1O[C@]13[C@]1(O[C@H]1C[C@H]1C4=C(CC[C@@]13C)C(=O)OC4)[C@@H]2O` [triptolide], the “more potent at inhibition of MMTV-luciferase induction than at binding inhibition” value on human GR (compared with GR ligand binding inhibition) was “more than an order of magnitude”. The “GR-mediated activation of target gene” value at human GR is recorded as “inhibited”. In “in vitro”, this molecule came in with a viability at 72 hr, 0.1 ng/ml of 91.7% and a viability at 72 hr, 10 ng/ml of 35.8%.
Regarding `CC(C)c1ccc2c(c1O)CC[C@H]1C3=C(CC[C@]21C)C(=O)OC3` [triptophenolide], the “dexamethasone dependent growth of IDH4 cells” value in the data set with IDH4 cells is “less active”. Also, on human GR, the “GR-mediated activation of target gene” value is listed as “far less potent”.

Usually viability stands for the share of living cells, or the viability signal relative to a control. A low value points to more harm to the cells.

The values above are taken from patent EP1007066B1, “SCREENING METHODS FOR GLUCOCORTICOID RECEPTOR BINDING SUBSTANCES USING TRYPTERYGIUM WILFORDII PREPARATIONS” (priority 1996, dated 1998).
